Assay results reported in patent US4895589A, “Heterocyclic compounds” (Imperial Chemical Industries PLC, priority 1985, dated 1990).
Where two headings read alike, the source gives them in different places.

Key:
Wheat [1] = assay: Whole Plant Screen (2), wheat; assay type: in vivo, Wheat (Timmo); settings: WW, 4000 ppm
Description: (§1) Compound numbers 12-13, 16-17 and 19-20 were tested on an alternative whole plant screen (2). The compounds were tested for plant growth regulator activity against five species for various growth effects relevant to plant growth regulation.
The plant species used in this screen are presented in Table IV with the leaf stage at which they were sprayed. Each chemical was applied at 4000 ppm (4 kg/ha in a 1000 l/ha field volume) using a tracksprayer and a SS8004E (Teejet) nozzle. […]
After 2-6 weeks in the glasshouse, depending on the time of year, the plants were visually assessed for morphological characteristics. Formulation blanks were used as controls to assess the plants. […]

Rice [2] = assay: Whole Plant Screen (2), rice; assay type: in vivo, Rice (Ishikari); settings: RC, 4000 ppm
Description: (§2) After 2-6 weeks in the glasshouse, depending on the time of year, the plants were visually assessed for morphological characteristics. Formulation blanks were used as controls to assess the plants.
(§3) Compound numbers 1, 5 and 7 (of the present invention) were tested against compounds A, B, C and D (compound Nos. 12, 2, 24 and 50 of Table 1 EP No. 0052424) on whole plant screen (2). The compounds were tested of plant growth regulator activity against five species and for various growth effects relevant to plant growth regulation. The structures are set out in FIG. 1.
(§4) The plant species used in this screen are presented in Table XII with the leaf stage at which they were sprayed Each chemical was applied at 4000 ppm (4 kg/ha in a 1000 l/ha field volume) using a tracksprayer and a SS8004E (Teejet) nozzle. […]

Rice [3] = assay: Intermediate Retardant Test, rice; assay type: in vivo, Rice (Ishikari); settings: Oryza sativa, 672 h, ~28 days, read-out: Percentage Reduction in Height of Rice (Compared to formulation blank)
Description: (§5) Three species are involved in this test RICE, SPRING-BARLEY and APPLES. The variety and growth stages at spray are outlined in Table VI. Compounds were applied at 1000 ppm and 4000 ppm respectively (1 kg and 4 kg ha^-1 at a field volume of 1000 l/ha^-1) as an overall spray. This gives a foliar and root component in the test, i.e. this test will detect the activity of both root and foliar acting compounds. The rice was grown in 4" `paddy` pots, i.e. the roots and bottom of the stems are immersed in water under conditions corresponding to those in paddy fields. Spring barley and apples were grown in 4" pots. The plants were assessed for height to top-most ligule at approximately 28 days after treatment for spring barley and rice and for height to apex at approximately 28 days after the treatment for apples. In each case the result for the 1000 ppm and 4000 ppm test for each compound is compared to the height of the formulation blank in that test, presented as a percentage reduction in height compared to the formulation blank.
as §5, with “in Table XIV. Compounds were” for “in Table VI. Compounds were”, “that test, and presented as” for “that test, presented as”

Spring Barley = assay: Intermediate Retardant Test, spring barley; assay type: in vivo, Spring Barley (Atem/kym); settings: Hordeum vulgare, 672 h, ~28 days, read-out: Percentage Reduction in Height of Spring Barley (Compared to formulation blank)
Description: as §5
as §5, with “in Table XIV. Compounds were” for “in Table VI. Compounds were”, “that test, and presented as” for “that test, presented as”

Apples = assay: Intermediate Retardant Test, apples; assay type: in vivo, Apples (Red Delicious); settings: 672 h, ~28 days, read-out: Percentage Reduction in Height of Apples (Compared to formulation blank)
Description: as §5
as §5, with “in Table XIV. Compounds were” for “in Table VI. Compounds were”, “that test, and presented as” for “that test, presented as”

[4] = tested on: plant species of Whole Plant Screen (1) or (2); assay: Across screen comparison: total retardation relative to paclobutrazol (Whole Plant Screens (1) and (2)); assay type: in vivo; settings: for Total Retardation expressed as a percentage of the total retardation caused by paclobutrazol: compounds of Table I, Table X
Text: The following Example is a general indicative comparison of compounds from EP No. 0052424 with compounds from the preferred class in the present invention. The compounds have not been side-by-side tested on this Example because of the large numbers involved but the retardant activity can be compared using a standard which has been on each test.
The compounds which are compared in this Example have been tested on one of two tests. These are the Whole Plant Screen (1) and Whole Plant Screen (2) the methods for which are described in Examples 17 and 18 respectively.
An across screen comparison between compounds is made by expressing the total retardation (ie. sum of retardation scores recorded for each species tested) caused by the compound as a percentage of the total retardation caused by the standard in that test. The standard chemical gives a measure of the performance of the test and environmental factors. By expressing the test compound activity as a percentage of the standard compound activity these factors can be eliminated . The same standard has been used in every test and this is paclobutrazol a proprietory growth regulator.

Wheat [5] = settings: WW, 4000 ppm, 2-3 weeks
Description: (§7) The compounds were tested for plant growth regulator activity against up to tweleve plant species for various growth effects relevant to plant growth regulation.
(§8) After spray, the plants were grown in a glasshouse with 25° C. day/22° C. night temperatures and supplementary lighting was supplied when necessary (from mercury vapour lamps), to provide a 16 hour photoperiod. The exception to this were the temperate cereals, wheat and barley, which were grown in 16° C. day 13° C. night temperatures
(§9) After 2-3 weeks in the glasshouse, depending on the time of year, the plants were visually assessed for morphological characteristics. Formulations blanks were used as controls to assess the Plants.

Agrostis tenius = settings: AT, 4000 ppm, 2-3 weeks
Description: as §7, §8, §9

Cynosurus cristatus = settings: CC, 4000 ppm, 2-3 weeks
Soya = settings: SY, 4000 ppm, 2-3 weeks
Description: as §7, §8, §9

Vines = settings: VN, 4000 ppm, 2-3 weeks
Lettuce = settings: LT, 4000 ppm, 2-3 weeks
Barley [6] = settings: BR, 4000 ppm, 2-3 weeks
Description: as §7, §8, §9

Dacrylis glomerata = settings: DA, 4000 ppm, 2-3 weeks
Description: as §7, §8, §9

Tomato = settings: TO, 4000 ppm, 2-3 weeks
Description: as §7, §8, §9

Barley [7] = assay: Whole Plant Screen (2), barley; assay type: in vivo, Barley (Atem); settings: BR, 4000 ppm, 2-6 weeks, Table V
Description: as §3, §4

Maize = assay: Whole Plant Screen (2), maize; assay type: in vivo, Maize (Earliking); settings: MZ, 4000 ppm, 2-6 weeks, Table V
Description: as §1
The plant species used in this screen are presented in Table IV with the leaf stage at which they were sprayed. Each chemical was applied at 4000 ppm (4 kg/ha in a 1000 l/ha field volume) using a tracksprayer and a SS8004E (Teejet) nozzle.
(§6) After spray the plants were grown in a glasshouse with 25° C. day 22° C. night temperatures and supplementary lighting was supplied when necessary (from mercury vapour lamps), to provide a 16 hour photoperiod. The exception to this were the temperate cereals, wheat and barley which were grown in 16° C. day 13° C. night temperatures.
as §2, §3
The plant species used in this screen are presented in Table XII with the leaf stage at which they were sprayed Each chemical was applied at 4000 ppm (4 kg/ha in a 1000 l/ha field volume) using a tracksprayer and a SS8004E (Teejet) nozzle.
as §6, with “day/22°” for “day 22°”, “day/13°” for “day 13°”

Row | SMILES | Percent reduction in rice plant height vs formulation blank at 1000 ppm (Rice [3]; Table VII) [%] | Percent reduction in rice plant height vs formulation blank at 4000 ppm (Rice [3]; Table VII) [%] | height reduction vs blank at 1000 ppm (Spring Barley; Table VIII) [%] | height reduction vs blank at 4000 ppm (Spring Barley; Table VIII) [%] | percent reduction in plant height vs formulation blank at 4000 ppm (Apples; Table IX) [%] | Total Retardation expressed as a percentage of the total retardation caused by paclobutrazol [4] | Retardation score (1-3) with greening (G), apical damage (A), tillering/side shooting (T) (Wheat [5]) | Retardation score (1-3) with greening (G), apical damage (A), tillering/side shooting (T) (Agrostis tenius) | Retardation score (1-3) with greening (G), apical damage (A), tillering/side shooting (T) (Cynosurus cristatus) | Retardation score (1-3) with greening (G), apical damage (A), tillering/side shooting (T) (Soya) | percent reduction in plant height vs formulation blank at 1000 ppm (Apples; Table IX) [%] | also measured
1 | CC(C)(C)C#CC(O)(Cn1cncn1)C(C)(C)C (stereo not drawn) [Compound 5, 2,2-dimethyl-3-hydroxy-3-(3,3-dimethyl-but-1-yne-1-yl)-4-(1,2,4-triazol-1-yl)-butane] | 11.4 | 21.2 | 7 | 22.6 | 31.5 | 28.1 % of paclobutrazol | 2 (21-60% retardation) | 1 (10-30% retardation) | 2 (21-60% retardation) | 2G |  | G = Greening effect (Wheat [1]; side-by-side, Table XIII): 2 (31-60%); T = Tillering or side shooting (Wheat [1]; side-by-side, Table XIII): 2 (31-60%); T = Tillering or side shooting (Rice [2]; side-by-side, Table XIII): 2 (31-60%); Percent reduction in rice plant height vs formulation blank at 1000 ppm (Rice [3]; side-by-side, Table XVI): 10%; Percent reduction in rice plant height vs formulation blank at 4000 ppm (Rice [3]; side-by-side, Table XVI): 10%; height reduction vs blank at 1000 ppm (Spring Barley; side-by-side, Table XV): 9%; height reduction vs blank at 4000 ppm (Spring Barley; side-by-side, Table XV): 11%; percent reduction in plant height vs formulation blank at 1000 ppm (Apples; side-by-side, Table XVII): 2%; percent reduction in plant height vs formulation blank at 4000 ppm (Apples; side-by-side, Table XVII): 24%; range of activity / superiority in comparison with EP 0052424 compounds ([4]; Tables X and XI, across screen comparison): lower range of activity than the rest of the preferred class; Retardation score (1-3) with greening (G), apical damage (A), tillering/side shooting (T) (Vines): 1GT; Retardation score (1-3) with greening (G), apical damage (A), tillering/side shooting (T) (Lettuce): 1 (10-30% retardation)
2 | CCC(C)CC#CC(O)(Cn1cncn1)C(C)(C)C (stereo not drawn) [Compound 10, 2,2-dimethyl-3-hydroxy-3-(4-methyl-hex-1-yne-1-yl)-4-(1,2,4-triazol-1-yl)-butane] | 20.7 | 38.2 | 20.2 | 72.4 | 27.1 | 47.8 % of paclobutrazol | 2GT | 1 (10-30% retardation) | 2 (21-60% retardation) | 2GA | 9.8 | Retardation score (1-3) with greening (G), apical damage (A), tillering/side shooting (T) (Barley [6]): 2GT; Retardation score (1-3) with greening (G), apical damage (A), tillering/side shooting (T) (Dacrylis glomerata): 1 (10-30% retardation); Retardation score (1-3) with greening (G), apical damage (A), tillering/side shooting (T) (Tomato): 1G
3 | CC(C)(C)C(O)(C#CCCCCl)Cn1cncn1 (stereo not drawn) [Compound 13] | 6 | 5.2 | 17 | 41 | 9.2 | 83.3 % of paclobutrazol |  |  |  |  | 2.8 | I = Interligular or internodal length reduction (Barley [7]): 2 (31-60%); G = Greening effect (Wheat [1]; 2-6 weeks, Table V): 1 (10-30%); T = Tillering or side shooting (Wheat [1]; 2-6 weeks, Table V): 1 (10-30%); I = Interligular or internodal length reduction (Rice [2]; 2-6 weeks, Table V): 2 (31-60%); R = Retardation (Rice [2]; 2-6 weeks, Table V): 2 (31-60%); T = Tillering or side shooting (Rice [2]; 2-6 weeks, Table V): 1 (10-30%); I = Interligular or internodal length reduction (Maize): 1 (10-30%); R = Retardation (Maize): 1 (10-30%)
